In patent US20040132811A1, “Methods and products for inhibiting growth of fungal pathogens on turfgrass” (priority 2003, published 2004):
“Also recorded” adds a separate entry of the source.

Tested on: anthracnose on bentgrass
Assay: Evaluation of fungicides for control of anthracnose on bentgrass putting greens (field test)
Format: in vivo, Colletotrichum graminicola
Description: The test was established on the 16th green at the Fianna Hills Country Club in Fort Smith, Ark. The green is more than 20 years old and was maintained at 0.156-inch mowing height and with other standard practices used at Fianna Hills. The design was a randomized complete block with 20 treatments and four replications. Individual plots were 4 feet×5 feet and isolated with a spray shield during applications. Treatments were applied on approximate 14- or 28-day schedules. Actual dates of applications were 31 May, 13 Jun., 27 Jun., 12 Jul., 26 Jul., and 9 Aug., all in 2002. Treatments were applied at 4 gal/1000 sq ft using a hand-held CO2-powered sprayer at 20 psi with a TeeJet 8004VS spray tip. The amount of active ingredient per 1000 square feet for each fungicide is provided in Table I. The C3 biocontrol is a strain of Lysobacter enzymogenes that was supplied by Dr. Gary Yuen from the University of Nebraska. The MX 567 active ingredient was first dissolved in acetone and then diluted with water. Treatments were evaluated by recording disease incidence, disease intensity, and turf quality.

[1] = 2 Aug, 2.5 g ai + .05% Tween per 1000 sq ft, days 0, 13, 27, 42, 56, 70
[2] = 19 Aug, 2.5 g ai + .05% Tween per 1000 sq ft, days 0, 13, 27, 42, 56, 70

C[C@H](COc1cc(F)ccc1F)NC(=O)C(C#N)C(C)(C)C (stereo in doubt) [MX 567, rel-2-cyano-N-[(1R)-2-(2,5-difluorophenoxy)-1-methylethyl]-3,3-dimethylbutanamide]
Incidence (%) of plot area with anthracnose symptoms [1]: 23%
Intensity (0 = no disease to 4 = dead) [1]: 1.0
Severity (incidence × intensity) [1]: 23
Incidence (%) of plot area with anthracnose symptoms (16 Jul, 2.5 g ai + .05% Tween per 1000 sq ft, days 0, 13, 27, 42, 56, 70): 21%
Incidence (%) of plot area with anthracnose symptoms [2]: 29%
Intensity (0 = no disease to 4 = dead) [2]: 1.0
Severity (incidence × intensity) [2]: 29
Turf quality (0-9 rating scale: 0 = all dead, 9 = excellent) [2]: 6.3
Incidence (%) of plot area with anthracnose symptoms (26 Jul, 2.5 g ai + .05% Tween per 1000 sq ft, days 0, 13, 27, 42, 56, 70): 2%
turf quality, in words (summary of Table I): increases in turf quality; also recorded: highest turf quality
disease severity, in words (summary of Table I versus nontreated checks): significant reductions in disease severity
